Test results reported in patent publication US8471027B2, “Adamantyl compounds” (Hoffmann-La Roche Inc., priority 2011, dated 2013).

What was measured:
[1] = target: JNK1 (Homo sapiens, UniProt P45983); experiment: In vitro JNK1 Assay (TR-FRET, phosphorylation of GST-c-Jun); assay type: biochemical; details: 0.2 nM JNK1, 26.7 nM GST-c-Jun, 2 μM ATP
Protocol: Phosphorylation of GST-c-Jun protein (amino acid residues 1-79) was measured as JNK1 activity. […] The reaction buffer contained 50 mM HEPES, pH 7.0, 10 mM MgCl2, 1 mM DTT, 0.1 mM Na3 VO4 and 0.2 mg/mL BSA. After 30 min. incubation at room temperature, the reaction was terminated by adding buffer containing 8 mM EDTA and a polyclonal anti-phospho-c-Jun antibody (Cell Signaling #9261L), followed by an additional incubation of 30 min. at room temperature. […] Time-resolved Fluorescence Resonance Energy Transfer (TR-FRET) signals were measured 1 hr. later on the EnVision reader (Perkin Elmer). Compound potency was assessed at 10 serially diluted concentrations. Percentage of inhibition at each concentration was determined to generate an IC50 value for each compound.

[2] = test system: phospho(Ser63)-c-jun in HK-2 cells; experiment: Cell-based assay for JNK inhibitors: in-cell ELISA of TNFα-stimulated phospho(Ser63)-c-jun in HK-2 cells; details: Homo sapiens, 10 ng/mL TNFα, 60 min preincubation with compound
Protocol: Cell-Based Assay for JNK Inhibitors
The cell-based assay employed the in-cell ELISA method to determine the ability of compounds to prevent the generation of phospho(Ser63)-c-jun in HK-2 cells (human proximal tubule cells) in response to stimulation with tumor necrosis factor α (TNFα). In brief, for quantification of phospho(Ser63)-c-jun, the cells (in 96-well format) were fixed and permeablized then incubated sequentially with a rabbit anti-phospho-c-jun First Antibody specific for the presence of the phospho-Ser63 epitope and a donkey anti-rabbit IgG Second Antibody linked to horseradish peroxidase (HRP) for colorimetric quantitation of binding. For determination of non-specific binding of the First Antibody, Blank wells were preincubated with a mouse anti-phospho(Ser63)-c-jun Blocking Antibody that prevented specific binding of the First Antibody to the phospho-Ser63 epitope, but which was not recognized by the donkey anti-rabbit IgG Second Antibody. […] Blank wells received no TNFα stimulation or compound. Additional Control wells received TNFα stimulation, but no compound. The signal obtained in this case was considered the value for 0% inhibition (Control value).
Stock cultures of HK-2 cells (ATCC, Manassas, Va.) were grown under a 5% CO2/[…] atmosphere at 37 degrees C. in Keratinocyte-SFM medium (KSFM, Invitrogen, Grand Island, N.Y.) containing 5 μg/L epidermal growth factor and 5 mg/L bovine pituitary extract (both supplied with the medium), additionally supplemented with 10% (v/v) fetal calf serum (FCS; Invitrogen, Grand Island, N.Y.) and 1% (v/v) antibiotic-antimycotic (ABAM: Sigma, St. Louis, Mo.). For assays, cells were seeded in collagen coated 96-well polystyrene plates (BD Biosciences, Franklin Lakes, N.J.) at a density of 40,000 cells/well and cultured for 24 h in the same medium (100 μL/well) followed by a further 16-24 h in 100 μL of similar medium, but without FCS. […] Cells were incubated for a further 30 minutes and then the medium was aspirated and the wells washed with 100 μL/well PBS followed by the addition of 100 μL 3.7% (v/v) Formaldehyde (Fisher Scientific, Fair Lawn, N.J.) in PBS. Plates were then allowed to stand at room temperature for 20 minutes before being washed with 200 μL/well of PBS. (Further steps were performed immediately or the plates were stored at 4 degrees C. and the assay completed the next day.) To each well was added 100 μL 1% (v/v) TritonX-100 (Sigma, St. Louis, Mo.) in PBS followed by 20 minutes standing at room temperature, washing with 200 μL/well PBS, the addition of 100 μL/well of Quenching buffer (1% (v/v) hydrogen peroxide (Sigma, St. Louis, Mo.) and 0.1% (w/v) sodium azide (Fisher Scientific, Fair Lawn, N.J.)) in PBS and a further 20 minutes at room temperature. Plates were then washed twice with 200 μL/well of 0.1% (v/v) Tween-20 (Teknova, Hollister, Calif.) in PBS before addition of 200 μL/well of 2% BSA/0.10% Tween-20 in PBS and a further 1 hour at room temperature. At this time, buffer was removed from Blank wells and replaced with 90 μL/well of mouse anti-phospho-c-jun-Ser63 (BD Bioscience, 558036) diluted 1:4000 in PBS containing 1% BSA/0.1% Tween-20 (Antibody Dilution Buffer). All other wells are replaced with 90 μL/well of rabbit anti-phospho-c-jun-Ser63 (Cell Signaling, 9261) diluted 1:250 in Antibody Dilution Buffer. After a further one hour, rabbit anti-phospho-c-jun-Ser63 is added directly to the solution in the Blank wells resulting in 1:250 dilution of this antibody. Plates were then placed on a slowly rotating platform at 4 degrees C. overnight. Wells were then washed thrice with 200 μL/well PBS/0.1% Tween-20. After addition of the third wash, the plates were placed on a slowly rotating platform for 15 minutes at room temperature. […]

[3] = test system: phospho-(Ser63)-c-jun; experiment: Mouse In Vivo TNFα-Induced Kidney and Liver Phospho-c-Jun Assay; parameters: species or system C57/BL6 mice; details: Example B, procedures identical to Example A
Protocol: Male C57/BL6 mice were obtained from Jackson Labs and acclimatized for at least one week prior to use at age 10-12 weeks. Mice (n=8 per group) were administered Compound I-1 (Group 3; 50 mg/kg from a 12.5 mg/mL preparation in 20% (v/v)DMSO/80% (v/v) PEG400) or vehicle alone (Groups 1 and 2) via oral gavage. One hour later, mice received an intravenous challenge of 5 μg/kg recombinant mouse TNFα (Sigma) in saline (Groups 2 and 3) or saline alone (Group 1). After a further 1 h, the animals were killed by carbon dioxide inhalation. Kidneys and livers were removed, rapidly frozen in liquid nitrogen and stored at −80 degrees until analysis.
For analysis of livers, portions of frozen tissue (100-200 mg) were homogenized in lysis buffer (Cell Signaling Technology) supplemented with 1% (v/v) of each of Phosphatase Inhibitor Cocktail-1 (Sigma), Phosphatase Inhibitor Cocktail-2 (Sigma), Protease Inhibitor Cocktail (Sigma) and 1 mM AEBSF (Sigma). The phospho-(Ser63)-c-jun content was quantified using an ELISA kit (Cell Signaling Technology).
Experimental procedures were identical to Example A, but using 7-chloro-3-(4-methanesulfonyl-benzyl)-4-oxo-1-phenyl-1,4-dihydro-quinoline-2-carboxylic acid methyl ester.

Sequence of JNK1 (P45983 whole entry, species assumed, the tested form may be a part): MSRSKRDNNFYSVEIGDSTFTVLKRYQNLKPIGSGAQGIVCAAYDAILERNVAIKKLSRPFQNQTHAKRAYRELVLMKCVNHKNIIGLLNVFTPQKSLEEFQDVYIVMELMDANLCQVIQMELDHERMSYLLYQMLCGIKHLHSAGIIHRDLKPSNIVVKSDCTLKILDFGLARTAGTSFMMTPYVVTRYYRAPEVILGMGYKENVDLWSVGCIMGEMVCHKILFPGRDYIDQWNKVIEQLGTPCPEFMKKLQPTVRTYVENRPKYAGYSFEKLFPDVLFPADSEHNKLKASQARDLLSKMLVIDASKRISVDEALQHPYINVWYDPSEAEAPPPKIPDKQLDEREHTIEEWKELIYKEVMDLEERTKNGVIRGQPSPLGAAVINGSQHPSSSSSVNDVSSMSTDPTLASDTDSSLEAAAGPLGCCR

IC50 [1]	EC50 [2]	SMILES	effect on the levels of phospho-(Ser63)-c-jun in the kidneys [3]	effect on the levels of phospho-(Ser63)-c-jun in the livers [3]
57 nM	3200 nM	COC(=O)c1c(Cc2ccc(C(=O)N[C@@H]3[C@@H]4C[C@@H]5C[C@H]3C[C@@](NS(C)(=O)=O)(C5)C4)cc2)c(=O)c2ccc(Cl)cc2n1-c1ccccc1 [Compound I-15, rel-7-Chloro-3-[4-((1S,2S,3R,5S,7S)-5-methanesulfonylamino-adamantan-2-ylcarbamoyl)-benzyl]-4-oxo-1-phenyl-1,4-dihydro-quinoline-2-carboxylic acid methyl ester]	–	–
26 nM	3100 nM	COC(=O)c1c(Cc2ccc(C(=O)N[C@@H]3[C@@H]4C[C@@H]5C[C@H]3C[C@@](NC(C)=O)(C5)C4)cc2)c(=O)c2cccnc2n1-c1ccccc1 [Compound I-17, rel-3-[4-((1S,2S,3R,5S,7S)-5-Acetylamino-adamantan-2-ylcarbamoyl)-benzyl]-4-oxo-1-phenyl-1,4-dihydro-[1,8]naphthyridine-2-carboxylic acid methyl ester]	–	–
5 nM	1800 nM	COC(=O)c1c(Cc2ccc(C(=O)N[C@@H]3[C@@H]4C[C@@H]5C[C@H]3C[C@@](NS(=O)(=O)C3CC3)(C5)C4)cc2)c(=O)c2cccnc2n1-c1ccccc1 [Compound I-18, rel-3-[4-((1S,2S,3R,5S,7S)-5-Cyclopropanesulfonylamino-adamantan-2-ylcarbamoyl)-benzyl]-4-oxo-1-phenyl-1,4-dihydro-[1,8]naphthyridine-2-carboxylic acid methyl ester]	–	–
11 nM	2100 nM	COC(=O)c1c(Cc2ccc(C(=O)N[C@@H]3[C@@H]4C[C@@H]5C[C@H]3C[C@@](NS(C)(=O)=O)(C5)C4)cc2)c(=O)c2cccnc2n1-c1ccccc1 [Compound I-19, rel-3-[4-((1S,2S,3R,5S,7S)-5-Methanesulfonylamino-adamantan-2-ylcarbamoyl)-benzyl]-4-oxo-1-phenyl-1,4-dihydro-[1,8]naphthyridine-2-carboxylic acid methyl ester]	–	–
40 nM	3900 nM	COC(=O)c1c(Cn2ccc(C(=O)N[C@@H]3[C@@H]4C[C@@H]5C[C@H]3C[C@@](O)(C5)C4)cc2=O)c(=O)c2ccc(Cl)cc2n1-c1ccccc1 [Compound I-26, rel-7-Chloro-3-[4-((1S,2S,3R,5S,7S)-5-hydroxy-adamantan-2-ylcarbamoyl)-2-oxo-2H-pyridin-1-ylmethyl]-4-oxo-1-phenyl-1,4-dihydro-quinoline-2-carboxylic acid methyl ester]	–	–
62 nM	6900 nM	COC(=O)c1c(Cc2ccc(C(=O)N[C@@H]3[C@@H]4C[C@@H]5C[C@H]3C[C@@](NC(=O)C(C)(C)C)(C5)C4)cc2)c(=O)c2ccc(Cl)cc2n1-c1ccccc1 [Compound I-11, rel-7-Chloro-3-{4-[(1S,2S,3R,5S,7S)-5-(2,2-dimethyl-propionylamino)-adamantan-2-ylcarbamoyl]-benzyl}-4-oxo-1-phenyl-1,4-dihydro-quinoline-2-carboxylic acid methyl ester]	–	–

More lines, now with the values behind:

SMILES	IC50 [1]	EC50 [2]	effect on the levels of phospho-(Ser63)-c-jun in the kidneys [3]	effect on the levels of phospho-(Ser63)-c-jun in the livers [3]
O=C(N[C@@H]1[C@@H]2C[C@@H]3C[C@H]1C[C@@](O)(C3)C2)c1ccc(Cc2c(-c3ncco3)n(-c3ccccc3)c3cc(Cl)ccc3c2=O)cc1 [Compound I-27, Rel-4-(7-Chloro-2-oxazol-2-yl-4-oxo-1-phenyl-1,4-dihydro-quinolin-3-ylmethyl)-N-((1S,2S,3R,5S,7S)-5-hydroxy-adamantan-2-yl)-benzamide]	27 nM	8600 nM	–	–
COC(=O)c1c(Cc2ccc(C(=O)N[C@@H]3[C@@H]4C[C@@H]5C[C@H]3C[C@@](NCC(C)(C)O)(C5)C4)cc2)c(=O)c2ccc(Cl)cc2n1-c1ccccc1 [Compound I-16, rel-7-Chloro-3-{4-[(1S,2S,3R,5S,7S)-5-(2-hydroxy-2-methyl-propylamino)-adamantan-2-ylcarbamoyl]-benzyl}-4-oxo-1-phenyl-1,4-dihydro-quinoline-2-carboxylic acid methyl ester]	10 nM	1900 nM	–	–
COC(=O)c1c(Cc2ccc(C(=O)N[C@H]3[C@@H]4C[C@@H]5C[C@H]3C[C@@](O)(C5)C4)cc2)c(=O)c2cccnc2n1-c1ccccc1 [Compound I-2, rel-3-[4-((1S,2R,3R,5S,7S)-5-Hydroxy-adamantan-2-ylcarbamoyl)-benzyl]-4-oxo-1-phenyl-1,4-dihydro-[1,8]naphthyridine-2-carboxylic acid methyl ester]	47 nM	8500 nM	–	–
COC(=O)c1c(Cc2ccc(C(=O)N[C@@H]3[C@@H]4C[C@@H]5C[C@H]3C[C@@](O)(C5)C4)cc2)c(=O)c2ccc(Cl)cc2n1-c1ccccc1 [Compound I-3, rel-7-Chloro-3-[4-((1S,2S,3R,5S,7S)-5-hydroxy-adamantan-2-ylcarbamoyl)-benzyl]-4-oxo-1-phenyl-1,4-dihydro-quinoline-2-carboxylic acid methyl ester]	12 nM	5800 nM	–	–
COC(=O)c1c(Cc2ccc(C(=O)N[C@@H]3[C@@H]4C[C@@H]5C[C@H]3C[C@@](OC(C)=O)(C5)C4)cc2)c(=O)c2ccc(Cl)cc2n1-c1ccccc1 [Compound I-6, rel-3-[4-((1S,2S,3R,5S,7S)-5-Acetoxy-adamantan-2-ylcarbamoyl)-benzyl]-7-chloro-4-oxo-1-phenyl-1,4-dihydro-quinoline-2-carboxylic acid methyl ester]	110 nM	4400 nM	–	–
COC(=O)c1c(Cc2ccc(S(C)(=O)=O)cc2)c(=O)c2ccc(Cl)cc2n1-c1ccccc1 [7-chloro-3-(4-methanesulfonyl-benzyl)-4-oxo-1-phenyl-1,4-dihydro-quinoline-2-carboxylic acid methyl ester, reference compound]	32 nM	15000 nM	No significant effect	No significant effect
